Data: the supplement of paper PMC10307832

Tests used:
Test in all cases: relative viability (nuclei count vs DMSO), 5 days (fraction); higher = more cells survive
Decitabine + Dasatinib = compound: Nc1ncn([C@H]2C[C@H](O)[C@@H](CO)O2)c(=O)n1 [Decitabine] + Cc1nc(Nc2ncc(C(=O)Nc3c(C)cccc3Cl)s2)cc(N2CCN(CCO)CC2)n1 [Dasatinib] (partner 0.075 µM)
Summary of the method: (§1)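 Nuclei were stained with Hoechst during a one-step fixation (final 0.05% Triton X-100, 1% formaldehyde, 1 ug/ml Hoechst) carried out 5 days after dosing, then counted on 4× images. The cells, lung cancer lines in 1536-well plates, had been dosed by pin tool the day after seeding with one drug alone or a fixed anchor-drug dose plus five library-drug doses (not always all listed) in √10 steps. Relative viability is the nuclei count in treated wells divided by that in vehicle wells, and each value is the median of duplicate plates.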

Decitabine + Palbociclib = compound: Nc1ncn([C@H]2C[C@H](O)[C@@H](CO)O2)c(=O)n1 [Decitabine] + CC(=O)c1c(C)c2cnc(Nc3ccc(N4CCNCC4)cn3)nc2n(C2CCCC2)c1=O [Palbociclib] (partner 0.5 µM)
Summary of the method: as §1

Cediranib + AZD7762 = compound: COc1cc2c(Oc3ccc4[nH]c(C)cc4c3F)ncnc2cc1OCCCN1CCCC1 [Cediranib] + NC(=O)Nc1cc(-c2cccc(F)c2)sc1C(=O)N[C@H]1CCCNC1 [AZD7762] (partner 0.2 µM)
Summary of the method: as §1

Cediranib + Bortezomib = compound: COc1cc2c(Oc3ccc4[nH]c(C)cc4c3F)ncnc2cc1OCCCN1CCCC1 [Cediranib] + CC(C)C[C@H](NC(=O)[C@H](Cc1ccccc1)NC(=O)c1cnccn1)B(O)O [Bortezomib] (partner 0.002 µM)
Summary of the method: as §1

Row | Cell Line | relative viability (Decitabine + Dasatinib; first compound 0.04 µM) | relative viability (Decitabine + Dasatinib; first compound 0.1265 µM) | relative viability (Decitabine + Dasatinib; first compound 0.4 µM) | relative viability (Decitabine + Dasatinib; first compound 4 µM) | relative viability (Decitabine + Palbociclib; first compound 0.04 µM) | relative viability (Decitabine + Palbociclib; first compound 0.1265 µM) | relative viability (Decitabine + Palbociclib; first compound 0.4 µM) | relative viability (Decitabine + Palbociclib; first compound 4 µM) | relative viability (Cediranib + AZD7762; first compound 0.04 µM) | relative viability (Cediranib + AZD7762; first compound 0.1265 µM) | relative viability (Cediranib + AZD7762; first compound 0.4 µM) | relative viability (Cediranib + AZD7762; first compound 1.265 µM) | relative viability (Cediranib + AZD7762; first compound 4 µM) | relative viability (Cediranib + Bortezomib; first compound 0.04 µM) | relative viability (Cediranib + Bortezomib; first compound 0.1265 µM) | relative viability (Cediranib + Bortezomib; first compound 0.4 µM) | relative viability (Cediranib + Bortezomib; first compound 1.265 µM) | relative viability (Cediranib + Bortezomib; first compound 4 µM) | relative viability (Decitabine + Dasatinib; first compound 1.265 µM) | relative viability (Decitabine + Palbociclib; first compound 1.265 µM)
1 | 201T | 0.567 | 0.595 | 0.578 | 0.517 | 0.373 | 0.383 | 0.439 | 0.379 | 0.705 | 0.445 | 0.607 | 0.521 | 0.618 | 1.16 | 1.19 | 1.09 | 1.05 | 1.09 |  | 
2 | A-427 | 0.51 | 0.341 | 0.214 | 0.206 | 0.451 | 0.466 | 0.378 | 0.381 | 0.816 |  | 0.685 | 0.659 | 0.707 | 0.998 |  | 0.972 | 0.925 | 1.01 | 0.196 | 0.431
3 | ABC-1 | 0.451 | 0.553 | 0.588 | 0.421 |  | 0.805 | 0.794 | 0.551 | 0.635 | 0.729 | 0.813 | 0.905 | 0.723 | 0.33 | 0.272 | 0.307 |  | 0.305 | 0.416 | 0.57
4 | BEN | 0.373 | 0.406 | 0.225 | 0.218 | 0.497 | 0.443 | 0.455 | 0.42 | 0.772 | 0.587 | 0.649 | 0.517 | 0.696 | 0.872 | 0.432 | 0.861 | 0.559 | 0.724 | 0.251 | 0.435
5 | CAL-12T | 0.356 | 0.477 |  | 0.235 | 0.279 | 0.431 | 0.25 | 0.288 | 0.668 | 0.638 | 0.633 | 0.603 | 0.669 | 0.88 |  | 0.931 | 1.07 | 1.12 | 0.212 | 0.28
6 | COR-L23 | 0.255 | 0.347 | 0.29 | 0.18 | 0.212 | 0.237 | 0.196 | 0.153 |  |  |  |  |  | 0.944 | 1.05 | 0.867 | 0.969 | 1.18 | 0.161 | 0.145
7 | COR-L 105 | 0.254 | 0.353 | 0.262 | 0.305 | 0.45 | 0.474 | 0.397 | 0.387 |  |  |  |  |  |  | 0.666 | 0.715 | 0.722 | 0.828 | 0.282 | 0.408
8 | Calu-6 |  |  |  |  |  |  |  |  |  |  |  |  |  | 1.03 | 0.977 | 1.05 | 0.968 | 1.03 |  | 
9 | ChaGo-K-1 | 0.467 | 0.549 | 0.311 | 0.346 | 0.764 | 0.545 | 0.442 | 0.637 | 0.843 | 0.684 | 0.886 | 0.9 | 0.948 | 1.03 |  | 0.994 | 1.04 | 0.861 | 0.329 | 0.362
10 | EBC-1 |  |  |  |  |  |  |  |  |  |  |  |  |  | 0.702 | 0.628 | 0.528 | 0.687 | 0.687 |  | 
11 | EKVX | 0.479 | 0.494 | 0.368 | 0.329 | 0.3 | 0.372 | 0.405 | 0.235 | 0.731 | 0.609 | 0.636 |  | 0.798 | 1.12 | 0.892 | 0.975 | 0.939 | 0.865 | 0.36 | 0.259
12 | EMC-BAC-2 | 0.334 | 0.343 | 0.343 | 0.26 |  | 0.519 | 0.523 | 0.457 | 1.06 | 0.952 | 1.11 | 1.07 | 1.15 | 1.06 | 0.69 | 1.03 | 1.02 | 1.07 | 0.284 | 0.467
13 | EPLC-272H |  | 0.297 | 0.118 | 0.144 | 0.353 | 0.316 |  | 0.272 | 0.2 |  | 0.272 | 0.175 | 0.259 | 0.997 |  | 0.923 | 0.794 | 0.949 | 0.232 | 0.326
14 | H3255 |  | 0.341 | 0.251 | 0.252 | 0.333 | 0.343 | 0.3 | 0.307 | 0.889 | 0.811 | 0.924 | 0.824 | 0.886 | 0.808 | 0.842 | 0.776 | 0.731 | 0.814 | 0.351 | 0.302
15 | HARA | 0.311 | 0.261 | 0.232 | 0.138 | 0.238 | 0.244 | 0.253 | 0.207 | 0.35 | 0.279 | 0.234 | 0.267 | 0.251 | 1.18 | 1.01 | 1.11 | 1.14 | 1.07 | 0.257 | 0.223
16 | HCC-15 | 0.625 | 0.581 | 0.408 | 0.333 | 0.776 | 0.591 | 0.412 | 0.441 | 1.39 |  | 1.18 | 1.35 | 1.11 | 1.06 |  | 1 | 1.12 | 1.01 | 0.361 | 0.38
17 | HCC-44 |  |  |  |  | 1.01 | 0.935 | 0.808 | 0.873 | 1.09 | 0.843 | 1 | 0.941 | 1.04 | 0.825 |  | 0.873 | 0.932 | 0.975 |  | 0.761
18 | HCC-78 | 0.269 | 0.334 | 0.361 | 0.208 | 0.483 | 0.554 | 0.487 | 0.423 | 0.719 | 1.01 | 0.659 | 0.532 | 0.645 | 0.51 | 0.576 | 0.504 | 0.533 | 0.601 | 0.285 | 0.436
19 | HCC-366 | 0.608 | 0.632 | 0.567 | 0.128 | 0.306 | 0.244 | 0.175 | 0.0669 | 0.41 | 0.314 | 0.181 | 0.376 | 0.266 | 0.968 | 1.03 | 0.963 | 0.888 | 1.22 | 0.195 | 0.0803
20 | IA-LM |  |  |  |  |  |  |  |  |  |  |  |  |  | 1.01 | 1.14 | 0.926 | 0.771 | 0.912 |  | 
